Source: patent publication US20140081017A1, “Histone Deacetylase Inhibitors for Enhancing Activity of Antifungal Agents” (METHYLGENE INC., priority 2012, published 2014)
Values after ≈ are worked out from the molar mass of the structure shown. Like-named read-outs stand apart in the source and are kept apart here.

Key:
C. glabrata = test: Checkerboard FIC assay in combination with fluconazole (MIC alone and in combination, FICI); type: cell-based, Candida glabrata; settings: for FICI of combination resulting in fluconazole MIC of: 2 ug/mL / FICI of combination resulting in fluconazole MIC of: 4 ug/mL / FICI of combination resulting in fluconazole MIC of: 8 ug/mL: FICI calculated using a fluconazole MIC of 16 μg/mL; for FICI of combination resulting in fluconazole MIC of: 2 ug/mL (value in parenthesis) / FICI of combination resulting in fluconazole MIC of: 4 ug/mL (value in parenthesis) / FICI of combination resulting in fluconazole MIC of: 8 ug/mL (value in parenthesis): FICI using a fluconazole MIC of 128 μg/mL; for MIC: Nakaseomyces glabratus; for Multiple of compound MIC to synergize fluconazole MIC to 2 ug/mL / Multiple of compound MIC to synergize fluconazole MIC to 4 ug/mL / Multiple of compound MIC to synergize fluconazole MIC to 8 ug/mL: concentration in combination as multiple of the compound's MIC alone; for Multiple of compound MIC to synergize fluconazole MIC to 2 ug/mL: fluconazole MIC 2 ug/mL; for Multiple of compound MIC to synergize fluconazole MIC to 4 ug/mL: fluconazole MIC 4 ug/mL; for Multiple of compound MIC to synergize fluconazole MIC to 8 ug/mL: fluconazole MIC 8 ug/mL; for Concentration of Methylgene compound to synergize fluconazole MIC to 2 ug/mL / Concentration of Methylgene compound to synergize fluconazole MIC to 4 ug/mL / Concentration of Methylgene compound to synergize fluconazole MIC to 8 ug/mL: in combination with fluconazole; for Concentration of Methylgene compound to synergize fluconazole MIC to 2 ug/mL: fluconazole MIC lowered to 2 ug/mL; for Concentration of Methylgene compound to synergize fluconazole MIC to 4 ug/mL: fluconazole MIC lowered to 4 ug/mL; for Concentration of Methylgene compound to synergize fluconazole MIC to 8 ug/mL: fluconazole MIC lowered to 8 ug/mL
Procedure: The ability of the compounds to synergize with azoles against C. glabrata was evaluated by the checkerboard assay, a common laboratory method used to evaluate synergy, antagonism, and indifference using fractional inhibitory concentrations (FICs) and FIC indices (FICI).
The test compounds were supplied as a powder and dissolved in dimethylsulfoxide (DMSO) on the day of assay. Stock solutions were prepared at 640 ug/mL. Fluconazole was dissolved in deionized water to a stock concentration of 320 ug/mL. All test articles were in solution under these conditions.
(§1) The test organisms and reference isolates were streaked for isolation on Sabouraud agar medium (yeasts) or potato dextrose agar (fungi). Colonies were picked by swab from the medium and resuspended in the appropriate broth containing cryoprotectant. The suspensions were aliquoted into cryogenic vials and maintained at −80° C.
(§2) Prior to testing, the yeast isolates were streaked from the frozen vials onto Sabouraud dextrose agar. The plates were incubated overnight at 35° C. The fungal isolate was grown on potato dextrose agar slants and was incubated for 7-10 days at room temperature.
(§3) Both yeast and fungal isolates were tested in RPMI medium buffered with 0.165 M MOPS (3-(N-morpholino)propanesulfonic acid). The pH of the medium was adjusted to 7.0 with 1 N NaOH. The medium was sterile filtered using a 0.2 um PES (polyethersulfone) filter and stored at 4° C. until used.
FIC values were determined using a broth microdilution method (CLSI; 1, 3). To prepare the test plates, automated liquid handlers (Multidrop 384, Labsystems, Helsinki, Finland; Biomek 2000 and Biomek FX, Beckman Coulter, Fullerton Calif.) were used to conduct serial dilutions and liquid transfers.
The wells of standard 96-well microdilution plates (Costar 3795) were filled with 150 uL of DMSO in columns 2-12. Three hundred microliters of each test compound was added to each well in Column 1 of the plates. The Biomek 2000 was used to make eleven 2-fold serial dilutions in each of these “test compound mother” plates. The wells of the “fluconazole mother plates” were filled with 150 uL of sterile water in rows B-H. Row A of these plates was filled with 300 uL of the fluconazole stock solution. Serial 2-fold dilutions were then prepared from top to bottom by hand, using a multichannel pipette in rows B-G. The “daughter plates” were loaded with 180 uL of RPMI using the Multidrop 384. The Biomek FX was used to transfer 5 uL of compound solution from each well of a fluconazole mother plate to the corresponding well in all of the daughter plates in a single step. Then the Biomek FX was used to transfer 5 uL of compound solution from each well of a test compound mother plate to the corresponding well of the corresponding test compound daughter plate (already containing fluconazole at the appropriate concentrations) in a single step. Row H and Column 12 each contained serial dilutions of the test agent and fluconazole alone, respectively, for determination of the MIC.
Standardized inoculum of each organism was prepared per CLSI methods (CLSI; 1, 3). For yeast isolates, colonies were picked from the primary plate and a suspension was prepared in 0.85% saline to equal a 0.5 McFarland turbidity standard. For the fungal isolate, 1 mL of 0.85% saline was dispensed onto a potato dextrose agar slant onto which the isolate had been inoculated 7-10 days previously. Using a swab, a suspension of the fungus was made. After a short time to allow the heavy particles to settle out, a small quantity of the supernatant was dispensed into 0.85% saline and the suspension was adjusted to equal a 0.5 McFarland turbidity standard. Both yeast and fungal isolates were diluted 1:100 in RPMI and then transferred to compartments of sterile reservoirs divided by length (Beckman Coulter). The Biomek 2000 was used to inoculate the plates. […]

Candida parapsilosis = test: Minimal Inhibitory Concentration (MIC) assay, broth microdilution per CLSI; type: cell-based; settings: Lodderomyces parapsilosis, read-out: Minimum Inhibitory Concentrations against Yeast Isolates, Candida parapsilosis;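 note: two read times 24 hr and 48 hr of incubation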
Procedure: (§4) The in vitro activities of the inventive compounds (compound(s) herein) against fungi and/or yeasts were determined with isolates Candida albicans, Candida glabrata and Candida parapsilosis. The comparator compounds included fluconazole, caspofungin and amphotericin B.
(§5) The compounds were supplied as a powder, and were dissolved in dimethylsulfoxide (DMSO) the day of assay. Stock solutions were prepared at 10 mg/mL and diluted to a starting stock concentration of 2.56 mg/mL. Amphotericin B was dissolved in DMSO to a stock concentration of 2.56 mg/mL. Fluconazole was dissolved in deionized water to a stock concentration of 2.56 mg/mL. Caspofungin was received as a stock solution of 3.2 mg/mL in DMSO and was diluted to a starting stock concentration of 2.56 mg/mL.
as §1, §2, §3
(§6) The MIC assay method followed the procedure described by the Clinical and Laboratory Standards Institute (CLSI; 1, 2, 3) and employed automated liquid handlers to conduct serial dilutions and liquid transfers. Automated liquid handlers included the Multidrop 384 (Labsystems, Helsinki, Finland), Biomek 2000 and Biomek FX (Beckman Coulter, Fullerton Calif.). The wells in columns 2-12 in standard 96-well microdilution plates (Costar 3795) were filled with 150 ul of 100% DMSO. These would become the ‘mother plates’ from which ‘daughter’ or test plates would be prepared. The compounds (300 uL at 40× the desired top concentration in the test plates) were dispensed into the appropriate well in Column 1 of the mother plates. The Biomek 2000 was used to make serial 1:1 dilutions through Column 11 in the “mother plate”. The wells of Column 12 contained no compounds and were the organism growth control wells.
(§7) The daughter plates were loaded with 185 uL per well of RPMI described above using the Multidrop 384. The daughter plates were prepared using the Biomek FX which transferred 5 μL of the compound solution from each well of a mother plate to the corresponding well of the daughter plate in a single step.
(§8) Standardized inoculum of each organism was prepared per CLSI methods. For yeast isolates, colonies were picked from the streak plate and a suspension was prepared in 0.85% saline. For the fungal isolate, 1 mL of 0.85% saline was dispensed onto the potato dextrose agar slant that had been inoculated 7-10 days previously. Using a swab, a suspension of the fungus was made. After a short time to allow the heavy particles to settle out, a small quantity of the supernatant was dispensed into 0.85% saline and the suspension adjusted to equal a 0.5 McFarland turbidity standard. Both yeast and fungal isolates were diluted 1:100 in RPMI and then transferred to compartments of sterile reservoirs divided by length (Beckman Coulter). The Biomek 2000 was used to inoculate the plates. Daughter plates were placed on the Biomek 2000 work surface reversed so that inoculation took place from low to high compound concentration. The Biomek 2000 delivered 10 μL of standardized inoculum into each well. Thus, the wells of the daughter plates ultimately contained 185 uL of RPMI, 5 uL of the compound solution, and 10 uL of inoculum. […]

Candida glabrata = test: as above; type: cell-based; settings: Nakaseomyces glabratus, read-out: Minimum Inhibitory Concentrations against Yeast Isolates, Candida glabrata;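 note: two read times 24 hr and 48 hr of incubation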
Procedure: as §4, §5, §1, §2, §3, §6, §7, §8

Candida albicans = test: as above; type: cell-based; settings: Candida albicans, read-out: Minimum Inhibitory Concentrations against Yeast Isolates, Candida albicans;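 note: two read times 24 hr and 48 hr of incubation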
Procedure: as §4, §5, §1, §2, §3, §6, §7, §8

[1] = MIC of the example compound alone against C. glabrata in the checkerboard assay, approximately 48 hr, read-out: Methylgene MIC
[2] = test compound alone, C. glabrata, approx. 48 hr at 35° C., read-out: Compound MIC
[3] = 24 hr reading (first value of cell 24 hr/48 hr)
[4] = 48 hr reading (second value of cell 24 hr/48 hr)

Row | SMILES | FICI of combination resulting in fluconazole MIC of: 2 ug/mL (C. glabrata; C. glabrata) | FICI of combination resulting in fluconazole MIC of: 4 ug/mL (C. glabrata; C. glabrata) | FICI of combination resulting in fluconazole MIC of: 8 ug/mL (C. glabrata; C. glabrata) | FICI of combination resulting in fluconazole MIC of: 2 ug/mL (value in parenthesis) (C. glabrata; C. glabrata) | FICI of combination resulting in fluconazole MIC of: 4 ug/mL (value in parenthesis) (C. glabrata; C. glabrata) | FICI of combination resulting in fluconazole MIC of: 8 ug/mL (value in parenthesis) (C. glabrata; C. glabrata) | MIC (C. glabrata; [1]) | MIC (C. glabrata; [2]) | Multiple of compound MIC to synergize fluconazole MIC to 2 ug/mL (C. glabrata) | Multiple of compound MIC to synergize fluconazole MIC to 4 ug/mL (C. glabrata) | Multiple of compound MIC to synergize fluconazole MIC to 8 ug/mL (C. glabrata) | Concentration of Methylgene compound to synergize fluconazole MIC to 2 ug/mL (C. glabrata; C. glabrata) | Concentration of Methylgene compound to synergize fluconazole MIC to 4 ug/mL (C. glabrata; C. glabrata) | Concentration of Methylgene compound to synergize fluconazole MIC to 8 ug/mL (C. glabrata; C. glabrata) | MIC (Candida parapsilosis; [3]) | MIC (Candida parapsilosis; [4]) | MIC (Candida glabrata; [3]) | MIC (Candida glabrata; [4]) | MIC (Candida albicans; [3]) | MIC (Candida albicans; [4])
1 | O=C(Cc1ccc(CCCCc2cccc(NC(=O)NCCN3CCOCC3)c2)cc1)NO [Example 50, N-hydroxy-2-(4-(4-(3-(3-(2-morpholinoethyl)urei-do)phenyl)butyl)phenyl)acetamide] | 0.313 | 0.250 | 0.375 | 0.266 | 0.156 | 0.188 | 16 µg/mL | 16 µg/mL | (¼x) | (⅛x) | (⅛x) | 4 µg/mL | 2 µg/mL | 2 µg/mL | > 64 µg/mL | > 64 µg/mL | 8 µg/mL (≈ 17.6 µM) | 16 µg/mL (≈ 35.2 µM) | > 64 µg/mL | > 64 µg/mL
2 | CN1CCN(CCS(=O)(=O)Nc2cccc(CCCCc3ccc(CC(=O)NO)cc3)c2)CC1 [Example 54, N-hydroxy-2-(4-(4-(3-(2-(4-methylpiperazin-1-yl)ethylsulfonamido)phenyl)butyl)phenyl)acetamide] | 0.313 | 0.250 | 0.313 | 0.266 | 0.156 | 0.125 | > 16 µg/mL | > 16 µg/mL | – | – | – | 8 µg/mL | 4 µg/mL | 2 µg/mL | > 64 µg/mL | > 64 µg/mL | 16 µg/mL (≈ 32.7 µM) | > 64 µg/mL | > 64 µg/mL | > 64 µg/mL
3 | O=C(Cc1ccc(CCCC(=O)c2ccccc2)cc1)NO [Example 28, N-hydroxy-2-(4-(4-oxo-4-phenylbutyl)phenyl)acetamide] | 0.313 | 0.250 | 0.313 | 0.266 | 0.156 | 0.125 | 16 µg/mL | 16 µg/mL | (¼x) | (⅛x) | ( 1/16x) | 4 µg/mL | 2 µg/mL | 1 µg/mL | > 32 µg/mL | > 32 µg/mL | 8 µg/mL (≈ 26.9 µM) | 16 µg/mL (≈ 53.8 µM) | 32 µg/mL (≈ 108 µM) | 32 µg/mL (≈ 108 µM)
